For the test, the system named is MCF-7 cells. The test is described as follows: In vitro test of cell activity (MCF-7 cells, insulin stimulation, ELISA-One fluorescence). It is filed as cell-based. The note with it: for IC50 / inhibition at 0.5 µM / inhibition at 1 µM / inhibition at 0.25 µM: Homo sapiens, MCF7, MCF-7 cells; for inhibition at 0.5 µM: conc. 0.5 μM; for inhibition at 0.25 µM: conc. 0.25 μM. An outline of the steps:
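MCF-7 cells, seeded at 2.5×10^4/well in 10% FBS medium, were given compound in serum-free medium for 2 h at one concentration (screen) or a series (IC50). Insulin stimulation followed at […] final for 30 min; lysates assayed by ELISA-One sandwich immunoassay with fluorescence read-out.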

[1] abbreviates: conc. 1 μM, read-out: % inhibition AKT.
Setting [2] is: conc. 1 μM, read-out: % inhibition p70s6k.

Where two headings read alike, the source gives them in different places.

For the compound `COc1ncc(-c2ccc3ncc(NS(C)(=O)=O)c(=O)n3c2)cc1NS(=O)(=O)c1ccc(F)cc1F` [compound 98], the IC50 (read-out: IC50 p-AKT) is above 250 nM.

For `COc1ncc(-c2ccc3ncc(F)c(=O)n3c2)cc1NS(=O)(=O)c1cccc(F)c1` [compound 67], the inhibition at 0.5 µM by setting is: (read-out: % inhibition AKT) 85.8%; (read-out: % inhibition p70s6k) 89.7%. The IC50 was at most 50 nM (read-out: IC50 p-AKT) and at most 50 nM (read-out: IC50 p-p70S6K).

On to `COCCOc1cnc2ccc(-c3cnc(OC)c(NS(=O)(=O)c4sccc4C)c3)cn2c1=O` [compound 182], for which the IC50 (read-out: IC50 p-AKT) was above 250 nM.

With `COc1ncc(-c2ccc3nccc(=O)n3c2)cc1NS(=O)(=O)c1ccc(C(F)(F)F)cc1` [compound 22], the inhibition at 1 µM under setting [1] turned out to be 94.5% and the inhibition at 1 µM under setting [2] was 94%. Further, the IC50 (read-out: IC50 p-AKT) was at most 50 nM and the IC50 (read-out: IC50 p-p70S6K) was in the range of 100 to 250 nM.

On to `COCCOc1cnc2ccc(-c3ccc(OC)c(NS(=O)(=O)c4ccc(F)cc4F)c3)cn2c1=O` [compound 205], for which, for the setting “read-out: IC50 p-AKT”, the IC50 fell in the range of 50 to 100 nM.

With `COc1ncc(-c2ccc3ncc(-n4ccc(C)n4)c(=O)n3c2)cc1NS(=O)(=O)c1ccc(F)cc1F` [compound 216, 2,4-difluoro-N-(2-methoxy-5-(3-(3-methyl-1H-pyrazol-1-yl)-4-oxo-4H-pyrido[1,2-a]pyrimidin-7-yl)pyridin-3-yl)benzsulfamide], the inhibition at 0.25 µM is, setting by setting: (read-out: % inhibition AKT) 34.1%; (read-out: % inhibition p70s6k) 31%.

Consider `COc1ncc(-c2ccc3nccc(=O)n3c2)cc1NS(=O)(=O)c1ccccc1F` [compound 2], for which the inhibition at 1 µM by setting is: under setting [1], 94.2%; under setting [2], 50.8%. Besides, the IC50 reads like this: (read-out: IC50 p-AKT) 100 to 250 nM; (read-out: IC50 p-p70S6K) above 250 nM.

For the compound `COc1ncc(-c2ccc3nc(C)cc(=O)n3c2)cc1NS(=O)(=O)c1ccc(F)cc1Cl` [compound 222], the inhibition at 0.25 µM runs as follows: (read-out: % inhibition AKT) -26.7%; (read-out: % inhibition p70s6k) 2%.

For the compound `COc1ncc(-c2cn3c(=O)ccnc3cn2)cc1NS(=O)(=O)c1ccc(F)cc1` [compound 43], the inhibition at 0.5 µM by setting is: (read-out: % inhibition AKT) 17.8%; (read-out: % inhibition p70s6k) 16.2%.

`COc1ncc(-c2cn3c(=O)ccnc3cc2F)cc1NS(=O)(=O)c1ccc(F)cc1F` [compound 112]: the inhibition at 0.5 µM is, setting by setting: (read-out: % inhibition AKT) 40.8%; (read-out: % inhibition p70s6k) 3.6%.

As for `COc1ncc(-c2ccc3nccc(=O)n3c2C)cc1NS(=O)(=O)c1cc(F)ccc1F` [compound 60], the inhibition at 0.5 µM (read-out: % inhibition AKT) is 67.9% and the inhibition at 0.5 µM (read-out: % inhibition p70s6k) was found to be 43.9%.

As for `COc1ncc(-c2ccc3nccc(=O)n3n2)cc1NS(=O)(=O)c1cccc(F)c1` [compound 79], the inhibition at 0.5 µM is, setting by setting: (read-out: % inhibition AKT) 63.3%; (read-out: % inhibition p70s6k) 15.9%.

With `COc1ncc(-c2ccc3nccc(=O)n3c2)cc1CS(=O)(=O)c1ccc(F)cc1F` [compound 5], the inhibition at 1 µM was 26% under setting [1] and 12.3% under setting [2].

As for `COc1ncc(-c2ccc3nccc(=O)n3c2)cc1NS(=O)(=O)c1ccc(F)cc1` [compound 11], the inhibition at 1 µM by setting is: under setting [1], 94.7%; under setting [2], 52.3%. Also, the IC50 (read-out: IC50 p-AKT) was 50 to 100 nM and the IC50 (read-out: IC50 p-p70S6K) is 100 to 250 nM.

Take `COCCOc1cnc2ccc(-c3cnc(OC)c(NS(=O)(=O)c4ccc(C)nc4C)c3)cn2c1=O` [compound 192]: the IC50 (read-out: IC50 p-AKT) was at most 50 nM.

`COc1ncc(-c2ccc3nccc(=O)n3n2)cc1NS(=O)(=O)c1cc(F)ccc1F` [compound 76]: the inhibition at 0.5 µM runs as follows: (read-out: % inhibition AKT) 54.3%; (read-out: % inhibition p70s6k) 12.2%.

`CNc1cnc2ccc(-c3cnc(OC)c(NS(=O)(=O)c4ccc(F)cc4F)c3)cn2c1=O` [compound 95, 2,4-difluoro-N-(2-methoxy-5-(3-(methylamino)-4-oxo-4H-pyrido[1,2-a]pyrimidin-7-yl)pyridin-3-yl)benzulfamide]: the IC50 (read-out: IC50 p-AKT) lay within 100 to 250 nM.

As to `COc1ncc(-c2ccc3nccc(=O)n3c2)nc1NS(=O)(=O)c1ccc(F)cc1F` [compound 33], the inhibition at 0.5 µM by setting is: (read-out: % inhibition AKT) -40.9%; (read-out: % inhibition p70s6k) 0.8%.

As to `Cc1ncc(-c2ccc3nccc(=O)n3c2)cc1NS(=O)(=O)c1ccc(F)cc1F` [compound 7], the inhibition at 1 µM stood at 81.3% under setting [1] and 50.1% under setting [2].

In the case of `COc1ncc(-c2ccc3ncc(Cl)c(=O)n3c2)cc1NS(=O)(=O)c1c(C)noc1C` [compound 166], the inhibition at 0.25 µM stood at 66.5% (read-out: % inhibition AKT) and 89.2% (read-out: % inhibition p70s6k). Further, the IC50 was 100 to 250 nM (read-out: IC50 p-AKT) and 100 to 250 nM (read-out: IC50 p-p70S6K).

On to `COc1ncc(-c2ccc3ncc(C)c(=O)n3c2)cc1NS(=O)(=O)c1cccc(F)c1` [compound 86], for which the inhibition at 0.5 µM reads like this: (read-out: % inhibition AKT) 92.8%; (read-out: % inhibition p70s6k) 88.1%. Besides, the IC50 (read-out: IC50 p-AKT) is at most 50 nM and the IC50 (read-out: IC50 p-p70S6K) lay in the range of 100 to 250 nM.

`Cc1ncc(-c2ccc3nccc(=O)n3c2)cc1NS(=O)(=O)c1ccccc1F` [compound 10]: the inhibition at 1 µM is, setting by setting: under setting [1], 81.9%; under setting [2], 27.8%.

Regarding `CCc1ncc(-c2ccc3nccc(=O)n3c2)cc1NS(=O)(=O)c1ccc(F)cc1F` [compound 18], the inhibition at 1 µM under setting [1] is 85.7% and the inhibition at 1 µM under setting [2] came out at 46.2%.

On to `COc1ncc(-c2ccc3ncc(OCC(=O)O)c(=O)n3c2)cc1NS(=O)(=O)c1ccc(F)cc1F` [compound 177], for which, for the setting “read-out: IC50 p-AKT”, the IC50 was above 250 nM.

In the case of `Cc1ncc(-c2ccc3nccc(=O)n3c2)cc1NS(=O)(=O)c1ccc(F)cc1F` [compound 14], where the note is “MCF-7 cells, conc. 1 μM”, the “% inhibition AKT” value is given as 81.4% and the “% inhibition p70s6k” value is given as 47.3%.

With `COCOc1cnc2ccc(-c3cnc(OC)c(NS(=O)(=O)c4sc(C)nc4C)c3)cn2c1=O` [compound 181], under “read-out: IC50 p-AKT”, the IC50 was at most 50 nM.

Regarding `COc1ncc(-c2ccc3ncc(Cl)c(=O)n3c2)cc1NS(=O)(=O)c1cccc(C)c1` [compound 140], the inhibition at 0.5 µM stood at 94.8% (read-out: % inhibition AKT) and 90.5% (read-out: % inhibition p70s6k). For the same compound, the IC50 is at most 50 nM (read-out: IC50 p-AKT) and 50 to 100 nM (read-out: IC50 p-p70S6K).

Turning to `COc1ncc(-c2ccc3ncc(-n4ccc(C)n4)c(=O)n3c2)cc1NS(=O)(=O)c1ccc(Cl)s1` [compound 217], the inhibition at 0.25 µM (read-out: % inhibition AKT) stood at 54% and the inhibition at 0.25 µM (read-out: % inhibition p70s6k) stood at 67.7%.

`COc1ncc(-c2cn3c(=O)ccnc3cn2)cc1NS(=O)(=O)c1ccccc1Cl` [compound 51]: the inhibition at 0.5 µM (read-out: % inhibition AKT) is 64.1% and the inhibition at 0.5 µM (read-out: % inhibition p70s6k) was determined as 13.6%.

As to `COCCOCCOc1cnc2ccc(-c3cnc(OC)c(NS(=O)(=O)c4sc(C)nc4C)c3)cn2c1=O` [compound 191], for the setting “read-out: IC50 p-AKT”, the IC50 was at most 50 nM.

As for `COc1ncc(-c2cn3c(=O)ccnc3cn2)cc1NS(=O)(=O)c1cc(F)ccc1F` [compound 41], the inhibition at 0.5 µM was -10.1% (read-out: % inhibition AKT) and 0.1% (read-out: % inhibition p70s6k).

On to `COc1ncc(-c2ccc3nccc(=O)n3c2C)cc1NS(=O)(=O)c1ccccc1F` [compound 55], for which the inhibition at 0.5 µM is, setting by setting: (read-out: % inhibition AKT) 65.7%; (read-out: % inhibition p70s6k) 42.3%.

`COc1ncc(-c2ccc3nccc(=O)n3c2C)cc1NS(=O)(=O)c1ccc(F)cc1Cl` [compound 56]: the inhibition at 0.5 µM by setting is: (read-out: % inhibition AKT) 80.2%; (read-out: % inhibition p70s6k) 53.3%.

For `COCCOc1cnc2ccc(-c3cnc(OC)c(NS(=O)(=O)c4sc(C)nc4C)c3)cn2c1=O` [compound 176], the IC50 is at most 50 nM (read-out: IC50 p-AKT) and at most 50 nM (read-out: IC50 p-p70S6K).

In the case of `CNc1ncc(-c2ccc3ncc(OCCOC)c(=O)n3c2)cc1NS(=O)(=O)c1ccc(F)cc1F` [compound 215], the IC50 (read-out: IC50 p-AKT) was above 250 nM.

`COc1ncc(-c2ccc3ncc(Cl)c(=O)n3c2)cc1NS(=O)(=O)c1cnc(N)s1` [compound 161]: the inhibition at 0.25 µM runs as follows: (read-out: % inhibition AKT) 79.5%; (read-out: % inhibition p70s6k) 41%. Besides, the IC50 (read-out: IC50 p-AKT) is 50 to 100 nM and the IC50 (read-out: IC50 p-p70S6K) is above 250 nM.

Take `COCc1cnc2ccc(-c3cnc(OC)c(NS(=O)(=O)c4sc(C)nc4C)c3)cn2c1=O` [compound 239, N-(2-methoxy-5-(3-(methoxymethyl)-4-oxo-4H-pyrido[1,2-a]pyrimidin-7-yl)pyridin-3-yl)-2,4-dimethylthiazolyl-5-sulfamide]: the IC50 (read-out: IC50 p-AKT) is at most 50 nM.

As for `COc1ncc(-c2ccc3ncc(OC)c(=O)n3c2)cc1NS(=O)(=O)c1ccc(Cl)s1` [compound 108], the inhibition at 0.25 µM by setting is: (read-out: % inhibition AKT) 92.4%; (read-out: % inhibition p70s6k) 82.5%. Besides, the IC50 reads like this: (read-out: IC50 p-AKT) at most 50 nM; (read-out: IC50 p-p70S6K) at most 50 nM.

As for `COc1ncc(-c2ccc3ncc(F)c(=O)n3c2)cc1NS(=O)(=O)c1ccc(C(F)(F)F)cc1` [compound 69], the inhibition at 0.5 µM by setting is: (read-out: % inhibition AKT) 85.4%; (read-out: % inhibition p70s6k) 87.6%. The IC50 is at most 50 nM (read-out: IC50 p-AKT) and 50 to 100 nM (read-out: IC50 p-p70S6K).

With `COc1ncc(-c2ccc3ncc(N)c(=O)n3c2)cc1NS(=O)(=O)c1ccccc1F` [compound 90], the inhibition at 0.5 µM is, setting by setting: (read-out: % inhibition AKT) 92.7%; (read-out: % inhibition p70s6k) 87.9%. In addition, the IC50 runs as follows: (read-out: IC50 p-AKT) at most 50 nM; (read-out: IC50 p-p70S6K) 100 to 250 nM.

As for `COc1ncc(-c2ccc3ncc(F)c(=O)n3c2)cc1NS(=O)(=O)c1cc(F)ccc1F` [compound 65], the inhibition at 0.5 µM worked out at 84.8% (read-out: % inhibition AKT) and 89.7% (read-out: % inhibition p70s6k). Besides, the IC50 runs as follows: (read-out: IC50 p-AKT) at most 50 nM; (read-out: IC50 p-p70S6K) 50 to 100 nM.

`COc1ncc(-c2ccc3ncc(Cl)c(=O)n3c2)cc1NS(=O)(=O)c1nc(N)sc1C` [compound 170]: the 50% inhibitory concentration (IC50) (read-out: IC50 p-AKT) is at most 50 nM.

As for `COc1ncc(-c2ccc3ncc(-n4ccc(C)n4)c(=O)n3c2)cc1NS(=O)(=O)c1ccc(F)cc1Cl` [compound 219], the inhibition at 0.25 µM is 41.7% (read-out: % inhibition AKT) and 13.4% (read-out: % inhibition p70s6k).

By IC50 is commonly meant the concentration that inhibits the measured activity by half. Usually inhibition stands for the drop in the measured response relative to a control, in per cent.

Values taken from US9868737B2, “Pyridino[1,2-A]pyrimidone analogue used as MTOR/P13K inhibitor” (CISEN PHARMACEUTICAL CO., LTD., priority 2014, dated 2018).
